Reference: the supplement of paper PMC10627819

Experiments:
S. pneumoniae D39V [1] = experiment: fitness (endpoint OD595 vs no drug) (fraction); higher = more growth
Method in brief: (§1)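 Bacterial growth was followed in 384-well plates seeded at OD595 0.01, with 30 µl per well, or 55 µl for S. pneumoniae, in TSB, LB Lennox or CY at 37 °C. OD595 was read every 30 min for 14 h, and each reading had the first reading subtracted as background. Fitness is the background-corrected optical density at entry into stationary phase divided by the robust mean of the no-drug control wells. This ratio is capped at 1.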

B. subtilis 168 [2] = experiment: as above
Method in brief: as §1

S. pneumoniae D39V [3] = experiment: Bliss interaction score (quartile over a dose matrix) (fitness difference); higher = more antagonism (negative = synergy)
Method in brief: (§2)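 The Bliss score is observed minus expected fitness under the product model, reported as quartiles over technical, biological and donor/recipient replicates. Fitness is the OD595 at entry into stationary phase divided by the plate's robust no-drug mean and capped at 1. Single-drug fitness was inferred from combination data.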

S. aureus Newman = experiment: as above
Method in brief: as §2

S. aureus DSM 20231 = experiment: as above
Method in brief: as §2

B. subtilis 168 [4] = experiment: as above
Method in brief: as §2
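Wherever Bliss interaction score (quartile over a dose matrix) is given: first quartile when negative (synergy) and third quartile when positive (antagonism).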

CO/N=C(\C(=O)N[C@@H]1C(=O)N2C(C(=O)O)=C(COC(C)=O)CS[C@H]12)c1csc(N)n1 [Cefotaxime] + C[C@H]1COc2c(N3CCN(C)CC3)c(F)cc3c(=O)c(C(=O)O)cn1c23 [Levofloxacin]
Settings	fitness
B. subtilis 168 [2], first compound 0.5 µg/mL, partner 0.0312 µg/mL	0.0483
B. subtilis 168 [2], first compound 0.5 µg/mL, partner 0.0625 µg/mL	0.0584
B. subtilis 168 [2], first compound 0.5 µg/mL, partner 0.125 µg/mL	0.0586
B. subtilis 168 [2], first compound 1 µg/mL, partner 0.0312 µg/mL	0.0414
B. subtilis 168 [2], first compound 1 µg/mL, partner 0.0625 µg/mL	0.0443
B. subtilis 168 [2], first compound 1 µg/mL, partner 0.125 µg/mL	0.0448
B. subtilis 168 [2], first compound 2 µg/mL, partner 0.0312 µg/mL	0.0456
B. subtilis 168 [2], first compound 2 µg/mL, partner 0.0625 µg/mL	0.0537
B. subtilis 168 [2], first compound 2 µg/mL, partner 0.125 µg/mL	0.0738
S. pneumoniae D39V [1], first compound 0.0018 µg/mL, partner 0.1725 µg/mL	0.986
S. pneumoniae D39V [1], first compound 0.0018 µg/mL, partner 0.2 µg/mL	0.966
S. pneumoniae D39V [1], first compound 0.0018 µg/mL, partner 0.345 µg/mL	0.956
S. pneumoniae D39V [1], first compound 0.0018 µg/mL, partner 0.4 µg/mL	0.925
S. pneumoniae D39V [1], first compound 0.0018 µg/mL, partner 0.69 µg/mL	0.701
S. pneumoniae D39V [1], first compound 0.0018 µg/mL, partner 0.8 µg/mL	0.632
S. pneumoniae D39V [1], first compound 0.0035 µg/mL, partner 0.1725 µg/mL	0.985
S. pneumoniae D39V [1], first compound 0.0035 µg/mL, partner 0.2 µg/mL	0.943
S. pneumoniae D39V [1], first compound 0.0035 µg/mL, partner 0.345 µg/mL	0.939
S. pneumoniae D39V [1], first compound 0.0035 µg/mL, partner 0.4 µg/mL	0.894
S. pneumoniae D39V [1], first compound 0.0035 µg/mL, partner 0.69 µg/mL	0.656
S. pneumoniae D39V [1], first compound 0.0035 µg/mL, partner 0.8 µg/mL	0.611
S. pneumoniae D39V [1], first compound 0.007 µg/mL, partner 0.1725 µg/mL	0.824
S. pneumoniae D39V [1], first compound 0.007 µg/mL, partner 0.2 µg/mL	0.922
S. pneumoniae D39V [1], first compound 0.007 µg/mL, partner 0.345 µg/mL	0.731
S. pneumoniae D39V [1], first compound 0.007 µg/mL, partner 0.4 µg/mL	0.846
S. pneumoniae D39V [1], first compound 0.007 µg/mL, partner 0.8 µg/mL	0.548

fitness, B. subtilis 168 [2], one replicate
Settings	first compound 0.00775 µg/mL	first compound 0.0155 µg/mL	first compound 0.031 µg/mL	first compound 0.0625 µg/mL	first compound 0.125 µg/mL	first compound 0.25 µg/mL
partner 0.001 µg/mL	–	–	–	0.491	0.378	0.158
partner 0.002 µg/mL	0.874	0.691	0.57	0.382	0.311	0.158
partner 0.0039 µg/mL	0.834	0.683	0.565	0.418	0.306	0.128
partner 0.0078 µg/mL	0.812	0.659	0.496	–	–	–

Settings	Bliss interaction score
B. subtilis 168 [4]	0.0631
S. aureus DSM 20231	-0.0398
S. aureus Newman	0.0336
S. pneumoniae D39V [3]	0.112

CO/N=C(\C(=O)N[C@@H]1C(=O)N2C(C(=O)O)=C(COC(C)=O)CS[C@H]12)c1csc(N)n1 [Cefotaxime] + C[C@H]1c2cccc(O)c2C(=O)C2=C(O)[C@]3(O)C(=O)C(C(N)=O)=C(O)[C@@H](N(C)C)[C@@H]3[C@@H](O)[C@@H]21 [Doxycycline]
fitness, one replicate
Settings	first compound 0.0018 µg/mL	first compound 0.0035 µg/mL	first compound 0.007 µg/mL	first compound 0.00775 µg/mL	first compound 0.0155 µg/mL	first compound 0.031 µg/mL	first compound 0.0625 µg/mL	first compound 0.125 µg/mL	first compound 0.25 µg/mL
B. subtilis 168 [2], partner 0.02 µg/mL	–	–	–	0.855	0.698	0.508	0.608	0.538	0.467
B. subtilis 168 [2], partner 0.04 µg/mL	–	–	–	0.665	0.523	0.377	0.511	0.366	0.304
B. subtilis 168 [2], partner 0.08 µg/mL	–	–	–	0.278	0.0446	0.0311	0.343	0.209	0.252
S. pneumoniae D39V [1], partner 0.003875 µg/mL	≥ 1	≥ 1	0.866	–	–	–	–	–	–
S. pneumoniae D39V [1], partner 0.00775 µg/mL	≥ 1	0.974	0.888	–	–	–	–	–	–

fitness
Settings	first compound 0.0018 µg/mL	first compound 0.0035 µg/mL	first compound 0.007 µg/mL	first compound 0.5 µg/mL	first compound 1 µg/mL	first compound 2 µg/mL
B. subtilis 168 [2], partner 0.02 µg/mL	–	–	–	0.288	0.198	0.157
B. subtilis 168 [2], partner 0.04 µg/mL	–	–	–	0.204	0.086	0.0899
B. subtilis 168 [2], partner 0.08 µg/mL	–	–	–	0.0692	0.0318	0.0723
S. pneumoniae D39V [1], partner 0.0155 µg/mL	0.955	0.943	0.864	–	–	–
S. pneumoniae D39V [1], partner 0.031 µg/mL	0.814	0.801	0.794	–	–	–

Settings	Bliss interaction score
B. subtilis 168 [4]	0.0737
S. aureus DSM 20231	0.141
S. aureus Newman	0.0304
S. pneumoniae D39V [3]	0.0963

O=C(O)c1cn(C2CC2)c2cc(N3CCNCC3)c(F)cc2c1=O [Ciprofloxacin] + CC(=O)NC[C@H]1CN(c2ccc(N3CCOCC3)c(F)c2)C(=O)O1 [Linezolid]
Settings	fitness
B. subtilis 168 [2], first compound 0.0195 µg/mL, partner 0.125 µg/mL	0.609
B. subtilis 168 [2], first compound 0.0195 µg/mL, partner 0.5 µg/mL	0.334
B. subtilis 168 [2], first compound 0.039 µg/mL, partner 0.125 µg/mL	0.394
B. subtilis 168 [2], first compound 0.039 µg/mL, partner 0.5 µg/mL	0.263
S. pneumoniae D39V [1], first compound 0.125 µg/mL, partner 0.105 µg/mL	0.788
S. pneumoniae D39V [1], first compound 0.125 µg/mL, partner 0.2 µg/mL	0.567
S. pneumoniae D39V [1], first compound 0.125 µg/mL, partner 0.21 µg/mL	0.712
S. pneumoniae D39V [1], first compound 0.125 µg/mL, partner 0.4 µg/mL	0.298
S. pneumoniae D39V [1], first compound 0.125 µg/mL, partner 0.42 µg/mL	0.536
S. pneumoniae D39V [1], first compound 0.125 µg/mL, partner 0.8 µg/mL	0.146
S. pneumoniae D39V [1], first compound 0.25 µg/mL, partner 0.105 µg/mL	0.776
S. pneumoniae D39V [1], first compound 0.25 µg/mL, partner 0.21 µg/mL	0.7
S. pneumoniae D39V [1], first compound 0.25 µg/mL, partner 0.42 µg/mL	0.551
S. pneumoniae D39V [1], first compound 0.5 µg/mL, partner 0.105 µg/mL	0.61
S. pneumoniae D39V [1], first compound 0.5 µg/mL, partner 0.2 µg/mL	0.443
S. pneumoniae D39V [1], first compound 0.5 µg/mL, partner 0.21 µg/mL	0.569
S. pneumoniae D39V [1], first compound 0.5 µg/mL, partner 0.4 µg/mL	0.252
S. pneumoniae D39V [1], first compound 0.5 µg/mL, partner 0.42 µg/mL	0.414
S. pneumoniae D39V [1], first compound 0.5 µg/mL, partner 0.8 µg/mL	0.119

one replicate
Settings	fitness
B. subtilis 168 [2], first compound 0.0098 µg/mL, partner 0.0625 µg/mL	0.889
B. subtilis 168 [2], first compound 0.0195 µg/mL, partner 0.0625 µg/mL	0.856
B. subtilis 168 [2], first compound 0.039 µg/mL, partner 0.0625 µg/mL	0.417
S. pneumoniae D39V [1], first compound 0.25 µg/mL, partner 0.2 µg/mL	0.442
S. pneumoniae D39V [1], first compound 0.25 µg/mL, partner 0.4 µg/mL	0.28
S. pneumoniae D39V [1], first compound 0.25 µg/mL, partner 0.8 µg/mL	0.154

Settings	Bliss interaction score
B. subtilis 168 [4]	0.247
S. aureus DSM 20231	0.0785
S. aureus Newman	0.081
S. pneumoniae D39V [3]	0.0563
